These results are taken from patent US8143217B2, “Use of DPP-IV inhibitor to reduce hypoglycemic events” (Novartis AG, priority 2005, dated 2012).

This data set deals with patients with type 2 diabetes treated with insulin. As to the kind of experiment: Clinical study: 24 weeks LAF237 50 mg bid vs placebo as add-on to insulin, hypoglycemic episodes. It is filed as in vivo, human. The conditions noted are these: for Number of severe hypoglycemic episodes (Panel C): severe = requiring assistance of another party; for Number of severe hypoglycemic events compared with placebo group: P=0.032, chi-square test of two Poisson rates. The method, then:
A multicenter, double-blind, randomized, parallel-group study to compare the effect of 24 weeks treatment with LAF237 50 mg bid to placebo as add-on therapy in patients with type 2 diabetes treated with insulin.
In addition to treatment with insulin, patients are assigned to double-blind treatment of LAF237 50 mg bid or placebo in a ratio of 1:1.
This is a multicenter, randomized, double-blind, placebo-controlled study. Patients with type 2 diabetes (HbA1c 7.5-11%) who have been treated for at least 3 months with insulin is eligible for participation in the trial. Eligible patients are randomized equally to LAF237 50 mg bid or placebo in addition to continuing their insulin therapy. The insulin dose can be adjusted downward as clinically indicated but upward adjustments should not exceed 25% of the baseline insulin dose.
Each patient attends one screening visit (Week-4) where the inclusion/exclusion criteria is assessed. Eligible patients are then be randomized at Visit 2 (Baseline, Day 1) and complete 5 further visits over a period of 24 weeks of treatment with LAF237 or placebo added to insulin.
Patients were instructed to perform self-monitored blood glucose measurements (SMBG) any time hypoglycemia was suspected and prior to breakfast at least 3 times per week. […] Severe hypoglycemia was defined as any episode requiring the assistance of another party (with low plasma glucose value<3.1 mmol/L unless the severity of the event precluded glucose determination).

The mark [1] stands for this setting: 24-week treatment, vildagliptin 50 mg bid added to insulin (n = 144).

With `N#C[C@@H]1CCCN1C(=O)CNC12CC3CC(CC(O)(C3)C1)C2` [vildagliptin, (S)-1-[(3-hydroxy-1-adamantyl)amino]acetyl-2-cyano-pyrrolidine], the “Total number of hypoglycemic episodes reported (Panel B)” value under setting [1] was determined as 113 episodes. Under “24-week treatment, vildagliptin 50 mg bid added to insulin (n = 144), hypoglycemia = symptoms confirmed by SMBG<3.1 mmol/L”, the “Number of patients reporting any hypoglycemic episode (Panel A)” value turned out to be 33 patients. Moreover, the “Number of severe hypoglycemic episodes (Panel C)” value is on record as “none” under setting [1]; “did not show any severe hypoglycaemic episodes” (24-week treatment, vildagliptin 50 mg bid added to insulin (n = 144), listed as LAF237); 0 episodes (24-week treatment, vildagliptin 50 mg bid added to insulin (n = 144), listed as Vildagliptin + Insulin). Also, the “Effect against insulin-induced hypoglycemia” value (added to insulin in type 2 diabetes patients) is given as “protective effect”. Besides, the “Number of hypoglycemic events compared with placebo group” value (vildagliptin 50 mg bid vs placebo, both added to insulin, 24 weeks, P<0.001, chi-square test of two Poisson rates) is “statistically significantly lower”. For the same compound, the “Number of severe hypoglycemic events compared with placebo group” value (vildagliptin 50 mg bid vs placebo, both added to insulin, 24 weeks) is recorded as “statistically significantly lower” and the “Number of severe hypoglycemic events compared with placebo group” value (vildagliptin 50 mg bid vs placebo, both added to insulin, 24 weeks, listed as LAF237) is listed as “fewer severe hypoglycaemic episodes”.
